Patent US7947470B2, “Polynucleotides encoding hOCTN1 polypeptide” (Chugai Seiyaku Kabushiki Kaisha, priority 1997, dated 2011)
Starred links: 1 amine or outer side, 2 acyl side, 3 side chain; linkers in the order of their positions; H or OH if unused. Positions of bridges follow the written chain, without caps; N, C: chain ends. Non-standard residues stand in square brackets, D forms with d. Residues, ends and D or L forms follow the SMILES beside them. Chains are numbered I, II in the order given. Actinocin(9to1) = Cc1c2oc3c(C)ccc(C(=O)[*:1])c3nc-2c(C(=O)[*:2])c(N)c1=O; NMeV = CN[C@H](C(=O)O)C(C)C; Sar = CNCC(=O)O

Tests used:
Type in all cases: cell-based
human OCTN1 [1] = biological target: T1, human OCTN1 (Homo sapiens, UniProt Q9H015, I306T/L503F); assay: Transport experiment in HEK293 cells transfected with human OCTN1 (pcDNA3/OCTN1); conditions: for uptake of labeled substrate into human OCTN1-transfected cells: HEK293 cells, compared with Mock or untreated cells, 37° C.
T1 construct: cDNA containing the entire ORF which was cleaved out with SmaI and EcoRI was integrated; expressed in transfected cells; host or cells: Xenopus oocytes injected with 15 ng cRNA transcribed in vitro from pcDNA3/OCTN1
T1 sequence (Q9H015 1-551 I306T/L503F): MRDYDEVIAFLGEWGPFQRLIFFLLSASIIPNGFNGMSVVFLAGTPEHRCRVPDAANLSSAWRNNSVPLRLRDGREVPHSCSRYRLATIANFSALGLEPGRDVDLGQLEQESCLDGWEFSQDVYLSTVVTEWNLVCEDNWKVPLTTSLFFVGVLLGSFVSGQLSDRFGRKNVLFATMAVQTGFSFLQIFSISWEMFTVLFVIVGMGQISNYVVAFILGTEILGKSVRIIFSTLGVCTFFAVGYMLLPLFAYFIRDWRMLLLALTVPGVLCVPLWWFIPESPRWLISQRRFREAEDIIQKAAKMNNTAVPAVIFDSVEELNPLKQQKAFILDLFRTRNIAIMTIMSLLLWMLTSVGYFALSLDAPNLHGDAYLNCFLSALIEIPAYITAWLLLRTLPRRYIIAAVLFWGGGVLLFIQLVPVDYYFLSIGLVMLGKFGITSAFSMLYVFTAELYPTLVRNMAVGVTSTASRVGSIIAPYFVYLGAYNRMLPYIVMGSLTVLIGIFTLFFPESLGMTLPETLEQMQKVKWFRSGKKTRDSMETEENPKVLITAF
Description: The human fetal-kidney-derived cell strain, HEK 293 cells were transfected with the plasmid pcDNA3/OCTN1 and pcDNA3 vector containing no insert as a control by the calcium phosphate method. First, the plasmid DNA (10 μg), a Hepes buffer solution (137 mM NaCl, 5 mM KCl, 0.7 mM Na2HPO4, 6 mM Dextrose, and 21 mM Hepes pH 7.1) (1 ml), and 2 M CaCl2 (62.5 μl) were combined and allowed to stand at room temperature for 30 min or more to form calcium phosphate coprecipitates. After cells were plated on 10-cm plates at 1.5×10^6 cells per plate and cultured for 24 h, the calcium phosphate coprecipitates were added thereto, and the cells were further cultured for 24 h. Then, plates were washed with phosphate buffered saline (PBS), and the cells were further cultured for 24 h after the addition of fresh culture medium.
(§1) Transport experiment was performed using cells transfected with the plasmid DNA or untreated cells according to the following procedures. Cells were detached from plates using a rubber policeman, suspended in a transport buffer (containing 125 mM NaCl, 4.8 mM KCl, 5.6 mM (+)-glucose, 1.2 mM CaCl2, 1.2 mM KH2PO4, 1.2 mM MgSO4, and 25 mM Hepes pH 7.4), and pre-incubated for 20 min. An appropriate amount of each labeled substrate ([^14C]TEA (tetraethylammonium) (NEN), [^3H]carnitine (L-carnitine hydrochloride) (Amersham), [^3H]PCG (benzylpenicillin) (Amersham), [^3H]quinidine (ARC), or [^3H]pyrilamine (mepyramine) (Amersham)) was then added to the cell suspension, and the resulting mixture was incubated at 37° C. for a predetermined period of time. Incubated cells were overlaid on a silicon layer prepared by layering a mixture of silicon oil and liquid paraffin (specific gravity 1.022) on a 3 M KCl layer, and separated by centrifugation. Radioactivity of cells was measured to determine the into-the-cell transport activity. In this case, 1×10^6 cells were used as one point of cells. HEK 293 cells were cultured in Dulbecco's MEM containing 10% fetal calf serum (FCS) in an atmosphere of 5% carbon dioxide at 37° C.
First, the transporter capacity was measured in the cells transfected with pcDNA3/OCTN1 and untreated cells using TEA as a substrate (FIG. 5). […] Next, effects of the addition of unlabeled TEA on the labeled substrate uptake in this system (cold inhibition) was examined (FIG. 6). […] Next, to obtain the Km (Michaelis constant) value of human OCTNL to TEA, the uptake of ^14C-TEA with various concentrations was measured (FIG. 7). […] Next, the transport capacity of human OCTN1 for other substrate than TEA was examined (FIG. 8).

human OCTN2 = biological target: T2, human OCTN2 (Homo sapiens, UniProt O76082); assay: Transport experiment in HEK cells transfected with human OCTN2 (pcDNA3/OCTN2); conditions: for transport by human OCTN2: HEK cells transfected with pcDNA3/OCTN2, compared with Mock and pcDNA3/OCTN1
T2 construct: clones from both fragments were ligated at the PstI site in the overlapping region; expressed in transfected cells
T2 sequence (O76082 1-557): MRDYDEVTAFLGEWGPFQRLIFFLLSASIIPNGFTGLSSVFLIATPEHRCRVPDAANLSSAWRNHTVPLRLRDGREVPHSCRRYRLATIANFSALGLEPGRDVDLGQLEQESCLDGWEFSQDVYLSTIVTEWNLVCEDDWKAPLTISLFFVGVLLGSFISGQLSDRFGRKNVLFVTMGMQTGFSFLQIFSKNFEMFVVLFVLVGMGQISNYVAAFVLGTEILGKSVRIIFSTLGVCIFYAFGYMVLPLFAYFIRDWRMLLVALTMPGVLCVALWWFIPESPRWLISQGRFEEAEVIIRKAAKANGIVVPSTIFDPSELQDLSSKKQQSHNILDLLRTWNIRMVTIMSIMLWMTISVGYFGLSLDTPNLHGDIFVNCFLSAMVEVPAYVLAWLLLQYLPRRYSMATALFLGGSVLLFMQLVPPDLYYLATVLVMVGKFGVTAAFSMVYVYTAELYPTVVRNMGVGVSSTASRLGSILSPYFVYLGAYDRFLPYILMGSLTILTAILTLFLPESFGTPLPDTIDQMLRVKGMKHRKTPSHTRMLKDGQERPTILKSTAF
Description: as §1
HEK cells were transfected with pcDNA3/OCTN2, the pcDNA3 vector containing no insert (Mock), or pcDNA3/OCTN1 by the method described in Example 6 to perform transport experiments.
Next, Na^+ dependence of human OCTN2-mediated carnitine transport was examined using a transport buffer in which Na^+ was replaced with K+(FIG. 12).

human OCTN1 [2] = biological target: T1, human OCTN1; assay: Transport experiment using Xenopus oocytes injected with human OCTN1 cRNA; conditions: 25° C., 1 h, compared with water-injected oocytes
Description: cRNA was synthesized in vitro using T7 RNA polymerase with pcDNA3/OCTN1 as a template. This cRNA was diluted to the concentration of 0.3 ng/nl, and its 50-nl (15 ng) aliquot was injected into a single oocyte. As a control, 50 nl of distilled water was injected. These oocytes were cultured for 3 days, and then used for the transport experiment. After being preincubated in an uptake buffer (0.05% Tween 80, 100 mM NaCl, 2 mM KCl, 1 mM CaCl2, 1 mM MgCl2, and 10 mM Hepes pH 7.4) at 25° C. for 20 min, the oocytes were transferred to the uptake buffer containing 0.5 ml of labeled substrate to initiate the uptake. After the incubation at 25° C. for 1 h, the oocytes were washed in the ice-cold uptake buffer three times to terminate the reaction. The oocytes were solubilized in 5% SDS and mixed with Cleasol I (a cocktail for liquid scintillation counter) (3 ml) to determine the radioactivity. The radioactivity of the uptake buffer which contained the labeled compound at the time of incubation (external solution) (10 μl) was also similarly measured. The ratio of the radioactivity (dpm value) in the oocytes to that (dpm value) in the external solution was used as the uptake activity.

Row | SMILES | uptake of labeled substrate into human OCTN1-transfected cells (human OCTN1 [1]) | uptake activity / transport capacity of human OCTN1 cRNA-injected oocytes (human OCTN1 [2]) | further results
1 | CC1(C)S[C@@H]2[C@H](NC(=O)Cc3ccccc3)C(=O)N2[C@H]1C(=O)O [PCG, benzylpenicillin] | no significant increase in the uptake | – | –
2 | CC[N+](CC)(CC)CC [TEA, tetraethylammonium] | reaction time-dependent TEA uptake into the human OCTN1-transfectd cells was clearly observed | expresses the transport capacity | transport by human OCTN2 (human OCTN2): hardly transported; transport by human OCTN1 (comparison with OCTN2) (human OCTN1 [1]; HEK cells transfected with pcDNA3/OCTN1, Example 8): efficiently transported by human OCTN1; maximal velocity, Vmax (human OCTN1 [1]; Lineweaver-Burk plot of net uptake (OCTN1-transfected minus Mock HEK293 cells), 14C-TEA): 6.68±0.34 nmol/3 min/mg; Km (human OCTN1 [1]; Lineweaver-Burk plot of net uptake (OCTN1-transfected minus Mock HEK293 cells), 14C-TEA, read-out: Km (Michaelis constant) value of human OCTN1 to TEA): 440 ± 40 µM; effect of unlabeled (cold) TEA on labeled substrate uptake (cold inhibition) (human OCTN1 [1]; human OCTN1-transfected HEK293 cells): decrease in the apparent uptake of the labeled substrate was clearly seen depending on the concentration of cold TEA added
3 | Cc1c2oc3c(C)ccc(C(=O)N[C@@H]4C(=O)N[C@H](C(C)C)C(=O)N5CCC[C@H]5C(=O)N(C)CC(=O)N(C)[C@@H](C(C)C)C(=O)O[C@@H]4C)c3nc-2c(C(=O)N[C@@H]2C(=O)N[C@H](C(C)C)C(=O)N3CCC[C@H]3C(=O)N(C)CC(=O)N(C)[C@@H](C(C)C)C(=O)O[C@@H]2C)c(N)c1=O [actinomycin D] (I: T[dV]P[Sar][NMeV] / II: T[dV]P[Sar][NMeV]; ester I:1-I:C, II:1-II:C; linker I:N-II:N via Actinocin(9to1)) | – | has the activity to transport | –
4 | C[N+](C)(C)C[C@H](O)CC(=O)[O-].Cl [carnitine, L-carnitine hydrochloride] | significant increase in the uptake | expresses the transport capacity | transport by human OCTN2 (human OCTN2): high capacity to efficiently transport; carnitine transport activity of human OCTN2 in the absence of Na+ (human OCTN2; absence of Na+): no such activity; carnitine transport activity of human OCTN2 in the presence of Na+ (human OCTN2; presence of Na+): time-dependent carnitine transport activity; Na+ dependence of human OCTN2-mediated carnitine transport (human OCTN2; transport buffer in which Na+ was replaced with K+): completely depended on the presence of Na^+
5 | COc1cccc2c1C(=O)c1c(O)c3c(c(O)c1C2=O)C[C@@](O)(C(C)=O)C[C@@H]3O[C@H]1C[C@H](N)[C@H](O)[C@H](C)O1 [daunomycin] | – | has the activity to transport | –
6 | COc1cc([C@@H]2c3cc4c(cc3[C@@H](O[C@@H]3O[C@@H]5CO[C@@H](C)O[C@H]5[C@H](O)[C@H]3O)[C@H]3COC(=O)[C@H]23)OCO4)cc(OC)c1O [etoposide] | – | has the activity to transport | –
7 | COc1ccc(CN(CCN(C)C)c2ccccn2)cc1 [pyrilamine] | significant increase in the uptake | expresses the transport capacity | –
8 | C=C[C@H]1C[N@@]2CC[C@H]1C[C@@H]2[C@@H](O)c1ccnc2ccc(OC)cc12 [quinidine] | significant increase in the uptake | expresses the transport capacity | –
9 | CC[C@]1(O)C[C@@H]2CN(CCc3c([nH]c4ccccc34)[C@@](C(=O)OC)(c3cc4c(cc3OC)N(C)[C@H]3[C@@](O)(C(=O)OC)[C@H](OC(C)=O)[C@]5(CC)C=CCN6CC[C@]43[C@@H]65)C2)C1 [vinblastine] | – | has the activity to transport | –
